PubChem BioAssay AID1963848 (Molecular Pharmacology Branch, DTP, NCI, 2024)

Tested on: 379773-124-R-J2-PDC spheroid viability
Experiment: Anticancer human tumor 379773-124-R-J2-PDC patient-derived endometrial carcinoma cell line growth inhibition [POLQ]
Conditions: spheroids with HUVEC and MSC; for IC50: curve of first compound; for viability, T/C: stronger effect = lower value
Procedure: Multicellular complex tumor spheroid response to Polymerase (POL) inhibitors (novobiocin, ART-558, RP6685) in combination with a variety of drugs and investigational agents in selected tumor cell lines
The POL inhibitors (novobiocin, ART-558, and RP6685) were evaluated both individually and in combination with standard of care and investigational anticancer small molecules within a complex spheroid model of solid tumors. . Complex spheroids include a stromal component modeled by human endothelial cells (HUVEC) and fibroblasts modeled by human mesenchymal stem cells (MSCs). The concentration ranges selected for each drug and investigational agent were based upon clinically achievable concentrations if the clinical Cmax of the agent was known.
Compounds. The drugs and investigational agents: novobiocin (NSC847541), ART-558 (NSC835418), RP-6685 (NSC848927), peposertib (NSC802822), ceralasertib (NSC780249), elimusertib (NSC800525), camonsertib (NSC841442), AZD-1390 (NSC803789), olaparib (NSC753686), talazoparib (NSC767125), rucaparib (NSC756644), sotorasib (NSC818433), MRTX-1133 (NSC836407), SN-38 (NSC673596), topotecan (NSC609699), epotoside (NSC141540), doxorubicin (NSC123127), gemcitabine (NSC613327), 5-fluorouracil (NSC19893), paclitaxel (NSC125973), vemurafenib (NSC761431), MSA-2 (NSC828583), SN-011 (NSC837082), adavosertib (NSC754352), prexasertib (NSC758257), carboplatin (NSC241240) and oxaliplatin (NSC266046), were obtained from the National Cancer Institute (NCI) Developmental Therapeutics Program Chemical Repository (21). The FDA-approved anticancer drug set is available from the Developmental Therapeutics Program at https://dtp.cancer.gov/organization/dscb/obtaining/. […] The stock solutions were prepared in dimethyl sulfoxide (DMSO, Sigma-Aldrich, St. Louis, MO, cat. D2650), except for the platinum compounds which were prepared in saline (Quality Biological, Gaithersburg, MD, cat. 114-055-101), at 800-fold the tested concentration and stored at -70 degrees C prior to their use. All drugs and investigational agents were tested over a range starting from a high concentration at or near the clinical Cmax and decreasing in half-log increments. If the clinical Cmax for an agent had not been determined, the highest concentration tested was 10 microM, except for SN-38, which was tested at a high concentration of 1 microM.
Cell Culture. All cells were maintained in an incubator at 37 degrees C and 5% CO2 with 95% humidity. The PDC lines were cultured according to standard operating procedures established by the NCI PDMR (https://pdmr.cancer.gov). Table 3 of the manuscript, lists the cell lines along with the number of the three cell types plated to form the mct-spheroids and media for tumor cell growth. After thawing, all PDC lines, except 997537-175-T-J1-PDC and 415267-285-R-J2-PDC, were cultured in Matrigel-coated flasks prepared with a working solution of 1X Ham's F-12 nutrient mix, without supplementation (Thermo Fisher Scientific, cat. 11765054), 100 U/mL penicillin-streptomycin (Thermo Fisher Scientific, cat. 15140122), and 2.5% Matrigel (Corning Inc., Corning, NY, cat. 354248) for the first three passages. The two PDC lines 997537-175-T-J1-PDC and 415267-285-R-J2-PDC were cultured on uncoated flasks. The 857933-349-R-J2-PDC line was cultured in 6C/Colon 1B media containing advanced DMEM/F-12 (Thermo Fisher Scientific, cat. 12634028), 10 mM HEPES (Thermo Fisher Scientific, cat. 15630080), 1X GlutaMAX supplement (Thermo Fisher Scientific, cat. 35050061), 0.1 mg/mL primocin (InvivoGen, San Diego, CA, cat. ant-pm-2), 10% defined fetal bovine serum, heat inactivated (HyClone Laboratories Inc., Logan, UT, cat. SH30070.03HI), 50% L-WRN conditioned media (ATCC, cat. CRL-3276), 1.25 mM N-Acetyl-L-cysteine (Sigma-Aldrich, cat. A9165), 10 mM nicotinamide (Sigma-Aldrich, cat. N0636), 1X B-27 supplement (Thermo Fisher Scientific, cat. 17504044), 1X N-2 supplement (Thermo Fisher Scientific, cat. […]

[1] = second compound 0.0316 µM, first compound 0.0316 µM
[2] = second compound 0.0316 µM, first compound 0.1 µM
[3] = second compound 0.0316 µM, first compound 0.316 µM
[4] = second compound 0.0316 µM, first compound 1 µM
[5] = second compound 0.0316 µM, first compound 3.16 µM
[6] = second compound 0.0316 µM, first compound 10 µM
[7] = second compound 0.1 µM, first compound 0.0316 µM
[8] = second compound 0.1 µM, first compound 0.1 µM
[9] = second compound 0.1 µM, first compound 0.316 µM
[10] = second compound 0.1 µM, first compound 1 µM
[11] = second compound 0.1 µM, first compound 3.16 µM
[12] = second compound 0.1 µM, first compound 10 µM
[13] = second compound 0.316 µM, first compound 0.0316 µM
[14] = second compound 0.316 µM, first compound 0.1 µM
[15] = second compound 0.316 µM, first compound 0.316 µM
[16] = second compound 0.316 µM, first compound 1 µM
[17] = second compound 0.316 µM, first compound 3.16 µM
[18] = second compound 0.316 µM, first compound 10 µM
[19] = second compound 1 µM, first compound 0.0316 µM
[20] = second compound 1 µM, first compound 0.1 µM
[21] = second compound 1 µM, first compound 0.316 µM
[22] = second compound 1 µM, first compound 1 µM
[23] = second compound 1 µM, first compound 3.16 µM
[24] = second compound 1 µM, first compound 10 µM
[25] = second compound 3.16 µM, first compound 0.0316 µM
[26] = second compound 3.16 µM, first compound 0.1 µM
[27] = second compound 3.16 µM, first compound 0.316 µM
[28] = second compound 3.16 µM, first compound 1 µM
[29] = second compound 3.16 µM, first compound 3.16 µM
[30] = second compound 3.16 µM, first compound 10 µM
[31] = second compound 10 µM, first compound 0.0316 µM
[32] = second compound 10 µM, first compound 0.1 µM
[33] = second compound 10 µM, first compound 0.316 µM
[34] = second compound 10 µM, first compound 1 µM
[35] = second compound 10 µM, first compound 3.16 µM
[36] = second compound 10 µM, first compound 10 µM
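Also: spheroids exposed to drugs for seven days before readout.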
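For viability, T/C in this document: percent viability relative to DMSO vehicle control taken as 100%.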

## CCc1cc2c(N3CCc4c(cc(Cn5ccnc5)cc4-c4cn(C)nc4C(F)(F)F)C3=O)ccnc2c(OC)n1 + COC1C(OC(N)=O)C(O)C(Oc2ccc3c(O)c(NC(=O)c4ccc(O)c(CC=C(C)C)c4)c(=O)oc3c2C)OC1(C)C
Second compound 0.0316 µM
  IC50: 3.42 µM
Second compound 0.1 µM
  IC50: 2.6 µM
Second compound 0.316 µM
  IC50: 2.42 µM
Second compound 1 µM
  IC50: 3.58 µM
Second compound 3.16 µM
  IC50: 1.79 µM
Second compound 10 µM
  IC50: > 10 µM
[1]
  viability, T/C: 79.6%
[2]
  viability, T/C: 68.7%
[3]
  viability, T/C: 62.5%
[4]
  viability, T/C: 58.6%
[5]
  viability, T/C: 52.4%
[6]
  viability, T/C: 42.6%
[7]
  viability, T/C: 79.5%
[8]
  viability, T/C: 64.2%
[9]
  viability, T/C: 59.7%
[10]
  viability, T/C: 56.1%
[11]
  viability, T/C: 52.3%
[12]
  viability, T/C: 42.3%
[13]
  viability, T/C: 75.8%
[14]
  viability, T/C: 68%
[15]
  viability, T/C: 59.1%
[16]
  viability, T/C: 57.2%
[17]
  viability, T/C: 48.2%
[18]
  viability, T/C: 42.3%
[19]
  viability, T/C: 66.7%
[20]
  viability, T/C: 65.4%
[21]
  viability, T/C: 58.3%
[22]
  viability, T/C: 58.1%
[23]
  viability, T/C: 49.5%
[24]
  viability, T/C: 44.7%
[25]
  viability, T/C: 77.7%
[26]
  viability, T/C: 65%
[27]
  viability, T/C: 55.6%
[28]
  viability, T/C: 53.4%
[29]
  viability, T/C: 52%
[30]
  viability, T/C: 42.1%
[31]
  viability, T/C: 83.3%
[32]
  viability, T/C: 59.6%
[33]
  viability, T/C: 64.2%
[34]
  viability, T/C: 63.8%
[35]
  viability, T/C: 51.1%
[36]
  viability, T/C: 51.1%

## COc1ccc([C@@H](O)c2cc(-c3ncnc4cc(N5CCOCC5)ccc34)c(F)cc2Cl)nn1 + COC1C(OC(N)=O)C(O)C(Oc2ccc3c(O)c(NC(=O)c4ccc(O)c(CC=C(C)C)c4)c(=O)oc3c2C)OC1(C)C
Second compound 0.0316 µM
  IC50: 7.23 µM
Second compound 0.1 µM
  IC50: 9.89 µM
Second compound 0.316 µM
  IC50: 7.3 µM
Second compound 1 µM
  IC50: 8.15 µM
Second compound 3.16 µM
  IC50: 7.85 µM
Second compound 10 µM
  IC50: 7.09 µM
[1]
  viability, T/C: 89.6%
[2]
  viability, T/C: 85.1%
[3]
  viability, T/C: 88.3%
[4]
  viability, T/C: 80%
[5]
  viability, T/C: 81.1%
[6]
  viability, T/C: 37.6%
[7]
  viability, T/C: 81.4%
[8]
  viability, T/C: 81.4%
[9]
  viability, T/C: 91.5%
[10]
  viability, T/C: 81.1%
[11]
  viability, T/C: 91.1%
[12]
  viability, T/C: 49.7%
[13]
  viability, T/C: 92.6%
[14]
  viability, T/C: 82.1%
[15]
  viability, T/C: 79.1%
[16]
  viability, T/C: 81.6%
[17]
  viability, T/C: 75.1%
[18]
  viability, T/C: 40.4%
[19]
  viability, T/C: 74.2%
[20]
  viability, T/C: 83.1%
[21]
  viability, T/C: 83.9%
[22]
  viability, T/C: 87.8%
[23]
  viability, T/C: 82.1%
[24]
  viability, T/C: 43.1%
[25]
  viability, T/C: 81%
[26]
  viability, T/C: 83.3%
[27]
  viability, T/C: 96.7%
[28]
  viability, T/C: 77.5%
[29]
  viability, T/C: 78.5%
[30]
  viability, T/C: 42.5%
[31]
  viability, T/C: 80.3%
[32]
  viability, T/C: 75.8%
[33]
  viability, T/C: 82.6%
[34]
  viability, T/C: 80.1%
[35]
  viability, T/C: 95.8%
[36]
  viability, T/C: 35.9%
